The values below come from ChEMBL document CHEMBL1201862, “PubChem BioAssay data set” (2004).

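Interpolation was linear, between the two tested concentrations surrounding the appropriate level; five concentrations were tested over 48 hours in 96-well plates. GI50 = concentration required for 50% inhibition of growth.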 The source made the active and inactive calls. No stated cut-off is given here; in the data, active = GI50 up to about 1.1 µM and inactive = higher.

What all share (experiment): NCI anticancer screen, dose series, 48 h
The test system of assay [1] is BT-549.
For assay [2], the system named is KM12.
For assay [3], the system named is RPMI-8226.
The subject of assay [4] is MDA-N.
The subject of assay [5] is MCF7.
Assay [6] has as its system CCRF-CEM.
Assay [7] has as its system COLO 205.
The test system of assay [8] is SK-MEL-5.
The subject of assay [9] is IGROV-1.
For assay [10], the system named is SF-268.
The test system of assay [11] is M14.
In assay [12] the test system is SK-MEL-2.
Assay [13] deals with SR.
For assay [14], the system named is A498.
Assay [15] has as its system SF-295.
Assay [16] deals with NCI-H522.
Assay [17] relates to SK-MEL-28.
Assay [18] relates to SK-OV-3.
The test system of assay [19] is HCC 2998.

On to `CC(C)c1ccccc1[S+]([O-])c1ccccc1C(C)(C)O` (stereo unspecified), for which the GI50 in assay [1] was > 100 µM (inactive); in assay [2] it was 30.8 µM (inactive); in assay [3], 42.6 µM (inactive); in [4], 57.8 µM (inactive); in assay [5] it was > 100 µM (inactive); in assay [6], > 100 µM (inactive). The GI50 in assay [7] was > 100 µM (inactive); in [8], 27.2 µM (inactive); in assay [9], > 100 µM (inactive); in [10] it was > 100 µM (inactive); in assay [11], > 100 µM (inactive); in assay [12], 67.6 µM (inactive). The GI50 in assay [13] is > 100 µM (inactive); in assay [14], 20 µM (inactive); in [15] it was 21.1 µM (inactive); in assay [16], 96.8 µM (inactive); in assay [17], > 100 µM (inactive); in assay [18], 30.9 µM (inactive).

With `C1=Cc2ccccc2C1.C=C(C)c1ccccc1.[N-]=[N+]=Nc1ccccc1`, the GI50 is > 100 µM (inactive) in [1]; 50.5 µM (inactive) in assay [2]; 80 µM (inactive) in [3]; 72.3 µM (inactive) in assay [4]; 31.3 µM (inactive) in [5]; > 100 µM (inactive) in assay [7]. Further, the GI50 in [8], in assay [9], in [10], in assay [11], in assay [12] and in assay [13] was > 100 µM (inactive) each time. The GI50 is > 100 µM (inactive) in assay [14]; > 100 µM (inactive) in [15]; 34.3 µM (inactive) in [16]; > 100 µM (inactive) in assay [17]; > 100 µM (inactive) in assay [18].

For the molecule `COC1CC(C)(NC(C)=O)C2OC(c3ccccc3)OCC2O1` (stereo unspecified), the GI50 in assay [1], in [2], in assay [3], in [4], in assay [5] and in assay [6] was > 100 µM (inactive) throughout. Besides, the GI50 in assay [7], in [8], in assay [9], in [10], in [11] and in assay [13] was > 100 µM (inactive) throughout. For the same molecule, the GI50 in assay [14], in [15], in assay [16], in assay [17] and in assay [18] was > 100 µM (inactive) throughout.

Take `Cc1ccc2c(=O)cc(-c3ccc(-c4ccccc4)s3)[nH]c2n1`: the GI50 in assay [1] is > 33.6 µM (inactive); in [2] it was > 24.5 µM (inactive); in [3], 4.53 µM (inactive); in assay [4] it was 4.98 µM (inactive); in [5], 3.27 µM (inactive); in assay [6], > 25.2 µM (inactive). The GI50 in assay [7] is > 100 µM (inactive); in assay [8] it was 2.87 µM (inactive); in assay [9], 34.9 µM (inactive); in assay [10], > 63 µM (inactive); in assay [11] it was > 100 µM (inactive); in assay [12], > 100 µM (inactive). The GI50 in assay [13] was 2.43 µM (inactive); in assay [14] it was 14.2 µM (inactive); in [15] it was > 28.8 µM (inactive); in assay [16] it was > 19.7 µM (inactive); in assay [17], > 100 µM (inactive); in [18] it was 44.5 µM (inactive).

For `Cc1n[nH]c(=O)n1N1C(=O)c2ccccc2C1=O`, the GI50 in assay [1], in assay [2], in [4], in assay [19], in assay [5] and in assay [6] was > 100 µM (inactive) each time. The GI50 in assay [7], in assay [8], in assay [9], in [11], in [12] and in assay [13] was > 100 µM (inactive) throughout. The GI50 in assay [14], in [15] and in [17] was > 100 µM (inactive) in each case.

For the molecule `O=C(O)CCC[C@]1(O)O[C@@]2(CCCC2=O)[C@]2(O)CCC[C@@]21O`, the GI50 in [1], in assay [2], in assay [3], in assay [4], in assay [5] and in assay [7] was > 100 µM (inactive) each time. Also, the GI50 in assay [8], in assay [9], in [10], in [11], in [12] and in assay [13] was > 100 µM (inactive) each time. Besides, the GI50 was > 100 µM (inactive) in [14], 4.24 µM (inactive) in [15], 0.106 µM (active) in assay [16] and > 100 µM (inactive) in [17].

With `Cc1ccccc1N/N=C1\C(=O)Nc2ccccc21`, the GI50 in assay [1], in assay [2], in [3], in assay [4], in assay [19] and in assay [5] was > 100 µM (inactive) throughout. Further, the GI50 was > 100 µM (inactive) in assay [6]; 95.1 µM (inactive) in assay [7]; > 100 µM (inactive) in assay [8]; 0.0132 µM (active) in assay [9]; > 100 µM (inactive) in assay [10]; > 100 µM (inactive) in assay [11]. Moreover, the GI50 in assay [12] is > 100 µM (inactive); in assay [13], > 100 µM (inactive); in assay [15], > 100 µM (inactive); in assay [16], 96.8 µM (inactive); in assay [17], > 100 µM (inactive); in [18], > 100 µM (inactive).

Consider `Clc1ccc(Cc2nc3ccccc3nc2-c2cccc(Cl)c2)cc1`, for which the GI50 was 4.49 µM (inactive) in assay [1]; 3.48 µM (inactive) in [2]; 0.405 µM (active) in assay [3]; 2.28 µM (inactive) in assay [4]; 1.85 µM (inactive) in [19]; 2.92 µM (inactive) in assay [5]. For the same molecule, the GI50 was 0.0311 µM (active) in [6]; 2.8 µM (inactive) in assay [7]; 4.91 µM (inactive) in [8]; 1.95 µM (inactive) in [9]; 18.3 µM (inactive) in assay [10]; 2.43 µM (inactive) in [11]. In addition, the GI50 in [12] is 3.24 µM (inactive); in assay [13], 1.54 µM (inactive); in [15] it was 17.1 µM (inactive); in assay [16] it was 1.61 µM (inactive); in assay [18] it was 17.2 µM (inactive).
